# Measurements from patent US20050191348A1 (priority 2004, published 2005).
# Experiments:
# caspase-3 = assay: Caspase-3 cleavage in SH-SY5Y cells in serum free medium; format: cell-based, human; conditions: 3 days serum free, then 48 h with 1, 10 μM
# Description: FIGS. 3A-3D show the neuroprotective effects of propargylamine against serum deprivation. PC12 cells (3A) and SH-SY5Y neuroblastoma cells (3B) were incubated under serum deprivation and were untreated or treated with propargylamine (0.1, 1, 10 μM) for 24 hours. Cell death was detected by ELISA and the values are expressed as a percentage of the control. The results are the mean±SEM (n=3). *p<0.05 vs. control, untreated cells. (3C) Morphological characteristics visualized by phase-contrast microscope of PC12 cells maintained with full serum medium (a), or serum-free medium in the absence (b) or presence of propargylamine (1 μM) (c) or (10 μM) (d). The morphology was visualized by phase-contrast microscope. The results are representative photographic. Similar results were repeated 3 times. (3D) Effect of propargylamine on caspase-3 cleavage in SH-SY5Y neuroblastoma cells incubated 3 days in serum free medium, followed by 48 h incubation with or without propargylamine (1,10 μM).
# (iv) Immunoblot Analyses. […] Protein content was determined using the Bradford method. […] Quantification of results was accomplished by measuring the optical density of the labeled bands from the autoradiograms by scanning laser densitometry using the computerized imaging program Bio-ID (Imager, Bio1D software; Vilber Lourmat, Marne La Vallee, France). […]
# [1] = test system: Bcl-2 family and PKC isoform mRNA; assay: Gene expression by quantitative real-time RT-PCR in serum-free PC12 cells; format: cell-based, rat; conditions: 1 μM, 24 h, serum-free PC12
# Description: (vi) Total RNA extraction. PC12 cells were cultured in DMEM containing 5% FCS and 10% horse serum until confluence. At the day of the experiment, the medium was replaced with fresh medium without serum and rasagiline or propargylamine at various concentrations were administered for 24 h. At the end of incubation, the medium was removed and isolation of total RNA was performed, using Tri Reagent™ Isolation reagent. Total RNA was treated with DNase-RNase free (Roche Diagnostics, Mannheim, Germany) for 30 min at 37° C. and subsequently extracted by a round of phenol:chlorophorm:isoamylalcohol (25:24:1), followed by one of chloroform. After precipitation with NaOAc (0.3 M) and ethyl alcohol, the RNA pellet was washed with 80% ethyl alcohol (12,000×g) for 10 min and resuspended in 50-100 μl of diethylpyrocarbonate (DEPC)-treated water and incubated for 5-10 min at 56° C. to facilitate resuspension.
# (vi) Reverse transcription (RT) and quantitative real-time RT-PCR. In order to confirm the results obtained with the customized cDNA expression micro-array, 2 μg of total RNA were denatured and reverse transcribed using random hexanucleotides (0.5 μg/μl). Secondary structures of the template and primer (total volume of 16 μl) were opened by incubation for 5 min at 70° C. and immediately cooled on ice. Reaction mix (9 μl) containing reaction buffer, dNTP (0.5 mm each), RNAasin™ RNAase inhibitor (Promega) (25U) and M-MLV reverse transcriptase (200U) was added and samples were incubated at 39° C. for 1 h. For every RNA preparation a negative control was run in parallel consisting of a direct amplification of the RNA sample, omitting the RT step. The samples were transferred to 92° C. for 10 min, in order to deactivate the enzyme, and then cooled to 4° C.
# Quantitative real-time PCR, using LightCycler and FastStart DNA Master SYBR Green I ready-to use PCR mix, was performed according to the manufacture's protocol (Roche Diagnostics, Mannheim, Germany). cDNA (40 ng) was amplified in 20 μl total volume. The sequences of the primers and the size of the products are described in Table 1. The results are analyzed on the provided program of the LightCycler. The relative expression level of a given mRNA was assessed by normalizing to the housekeeping gene 18S-rRNA and compared with control values.
# In this experiment, we examined whether Bcl-2 family proteins mediate the pro-survival effect of rasagiline, using serum-starved rat pheochromocytoma PC12 cell line as a model of neuronal apoptosis. PC12 cells were maintained in full-serum (control), or in serum-free (SF) media in the absence or presence of various concentrations of rasagiline (0.001, 0.1, 1 and 10 μM) for 3 h or 24 h, and gene expression was measured by quantitative real-time RT-PC. The real-time RT-PCR consists of RNA samples isolated from said PC-12 cells. Each gene expression was normalized to the housekeeping gene, 18S-rRNA, since this transcript was reported to be less susceptible to the influence by external factors.
# The effect of propargylamine on Bad and Bax mRNA levels was examined as described in Example 5 above.
# PKC = PKC phosphorylation in PC12 cell lysates, Western blot with p-PKC (pan) antibody; format: cell-based, rat; conditions: PC12, 0.1, 1 and 10 μM, 1 h
# Description: (iv) Immunoblot Analyses. For Western blot analyses, attached cells were washed once in cold PBS and then lysed in 1× nonreducing Laemmli buffer followed by boiling for 3-5 min. Protein content was determined using the Bradford method. Equal amounts of protein were separated by SDS-polyacrylamide gel electrophoresis and blotted onto polyvinylidene difluoride (PVDF) membranes (Millipore). Membranes were treated with blocking buffer (5% dry milk in PBS or 5% dry milk, 0.05% Tween 20 (Sigma) in TBS). Primary antibodies were diluted in PBS or in TBS containing 5% BSA, 0.05% Tween 20 and incubated with membranes for 20 h at 4° C., followed by incubation (1 h at room temperature) in dilutions of horseradish peroxidase (HRP)-conjugated secondary antibodies in the same buffers. Following antibody incubations, membranes were washed in 0.5% Tween 20 in PBS or TBS. Detection was achieved using ECL™ Western Blotting Detection Reagent (Amersham, Pharmacia, Little Chalfort Buckinghamshire, UK). Quantification of results was accomplished by measuring the optical density of the labeled bands from the autoradiograms by scanning laser densitometry using the computerized imaging program Bio-ID (Imager, Bio1D software; Vilber Lourmat, Marne La Vallee, France). The values were normalized to β-actin intensity levels.
# Since activation of PKC has been shown previously to modulate cell viability, resulting in protection of neuronal cells, it was of interest to investigate the effects of rasagiline on PKC activation. In one experiment, PC12 cells were untreated or treated with various concentrations of rasagiline (0.1, 1 and 10 μM) for 1 hour. […] Phosphorylation of PKC was analyzed in cell lysates by Western blotting and detected with p-PKC (pan) antibody.
# The effect of propargylamine on PKC phosphorylation/activation was investigated as described in Example 2 above.
# [2] = test system: SH-SY5Y neuroblastoma cells; assay: Cell death under serum deprivation (apoptotic cell death detection ELISA), SH-SY5Y; format: cell-based, human; conditions: 24 h serum deprivation, significant at 1 and 10 μM
# Description: (ii) Cell culture, viability measurements and experimental treatments. Two different neuronal cell lines were used: the rat PC12 and the human neuroblastoma SH-SY5Y cells.
# SH-SY5Y neuroblastoma cells were plated in 100-mm culture dishes and cultured in Dulbecco's modified Eagle's medium (DMEM; 4500 mg/l glucose), containing 10% fetal calf serum (FCS) and a mixture of 1% penicillin/streptomycin/nystatin.
# Cell cultures were incubated at 37° C. in a humid 5% CO2-95% air environment. For cell viability assays, cells were treated with various drugs in serum free media containing 0.1% BSA.
# (iii) Measurement of cell death.
# In order to test cell viability, PC12 cells and SH-SY5Y neuroblastoma cels were incubated under serum deprivation and were untreated or treated with rasagiline (0.1. 1 or 10 μM) for 24 hours.
# In order to test cell viability, PC12 cells and SH-SY5Y neuroblastoma cels were incubated under serum deprivation and were untreated or treated with propargylamine (0.1. 1 or 10 μM) for 24 hours.
smiles,measurement,setting,value
C#CCN [propargylamine],activated caspase-3,caspase-3,decreased activated caspase-3
same,Bad gene expression,[1],restored both Bax and Bad gene expressions to that of full serum level
same,Bax gene expression,[1],restored both Bax and Bad gene expressions to that of full serum level
same,PKC phosphorylation,PKC,"significant, dose-dependent increase in PKC phosphorylation"
same,cell death induced by serum deprivation,[2],significantly reduced cell death
